Results published in patent US20220218852A1, “NOVEL RADIOLABELLED CXCR4-TARGETING COMPOUNDS FOR DIAGNOSIS AND THERAPY” (PROVINCIAL HEALTH SERVICES AUTHORITY, priority 2019, published 2022).
Read-outs that look alike come from different tables or passages of the source. Positions of bridges follow the written chain, without caps; N, C: chain ends. Non-standard residues stand in square brackets, D forms with d. Residues, ends and D or L forms follow the SMILES beside them. Groups on a side chain read outwards from the residue. *: point of attachment. DOTA = O=C(O)CN1CCN(CC(=O)O)CCN(CC(=O)*)CCN(CC(=O)O)CC1; 2Nal = N[C@@H](Cc1ccc2ccccc2c1)C(=O)O; Lys(iPr) = CC(C)NCCCC[C@H](N)C(=O)O

Key:
Assay type in all cases: in vivo
[1] = system: PC3 prostate adenocarcinoma xenografts; test: Biodistribution in PC3 tumor-bearing mice
Protocol: (§1) For Daudi, Z138, GRANTA519 and Jeko1 xenografts, male NOD.Cg-Rag1^tm1MomII2rg^tm1Wjl/SzJ (NRG) mice were subcutaneously inoculated on the left flank with 5×10^6 cells (100 μL; 1:1 ratio of PBS/Matrigel) and tumors were grown to a size of 200-500 mm^3. For PC-3 xenografts, male NOD.Cg-Rag1^tm1MomII2rg^tm1Wjl/SzJ (NRG) mice were subcutaneously inoculated on the left flank with 5×10^6 PC-3 cells (100 μL; 1:1 ratio of PBS/Matrigel) and tumors were grown to a size of 200-400 mm^3.
(§2) The mice were euthanized via CO2 inhalation while anesthetized with isoflurane. Tissues were harvested, washed in PBS, blotted dry, weighed, and measured on a Hidex AMG Automatic Gamma Counter.

[2] = system: Daudi Burkitt's lymphoma xenografts; test: Biodistribution in Daudi tumor-bearing mice; conditions: Daudi
Protocol: as §1, §2

[3] = Biodistribution in Daudi tumor-bearing mice; conditions: male, NOD.Cg-Rag1^tm1MomII2rg^tm1Wjl/SzJ (NRG), mouse, iv, total radioactivity, Daudi
Protocol: as §1, §2

[4] = 1 h blocked (7.5 μg LY2510924 i.p.)

In the case of CC(C)NCCCC[C@@H]1NC(=O)[C@H](Cc2ccc(O)cc2)NC(=O)[C@H](Cc2ccccc2)NC(=O)CC[C@H](C(=O)N[C@@H](CCCCNC(C)C)C(=O)N[C@@H](CCCCNC(=O)[C@H](CCC(=O)O)NC(=O)[C@H](CCC(=O)O)NC(=O)[C@H](CCC(=O)O)NC(=O)CN2CCN(CC(=O)O)CCN(CC(=O)O)CCN(CC(=O)O)CC2)C(N)=O)NC(=O)CNC(=O)[C@H](Cc2ccc3ccccc3c2)NC(=O)[C@@H](CCCNC(=N)N)NC1=O [[^68Ga]Ga-BL02, metal not drawn] (FY[Lys(iPr)][dR][2Nal]G[dE][Lys(iPr)]K([Glu-Glu-Glu-DOTA])-NH2; lactam N-7), the “Ratio Tumor: Blood” value ([1]; 1 h) is reported as 5.74, the “Ratio Tumor: Bone” value ([1]; 1 h) is reported as 15.68 and the “Ratio Tumor: Liver” value ([1]; 1 h) is reported as 3.31. For the same compound, the “Ratio Tumor: Lung” value ([1]; 1 h) was 3.71, the “Ratio Tumor: Muscle” value ([1]; 1 h) was 23.74 and the “Ratio Tumor: Spleen” value ([1]; 1 h) was 6.62. For the same compound, the “Ratio Tumor: Blood” value [1, 4] was 1.56, the “Ratio Tumor: Bone” value [1, 4] was 6.16 and the “Ratio Tumor: Liver” value [1, 4] was 1.62. For the same compound, the “Ratio Tumor: Lung” value [1, 4] was 1.36, the “Ratio Tumor: Muscle” value [1, 4] was 7.68 and the “Ratio Tumor: Spleen” value [1, 4] was 2.16. The “Ratio Tumor: Blood” value ([1]; 2h) was 25.33, the “Ratio Tumor: Bone” value ([1]; 2h) was 13.96 and the “Ratio Tumor: Liver” value ([1]; 2h) was 1.99. For the same compound, the “Ratio Tumor: Lung” value ([1]; 2h) was 4.36, the “Ratio Tumor: Muscle” value ([1]; 2h) was 55.01 and the “Ratio Tumor: Spleen” value ([1]; 2h) was 5.63. The “Biodistribution Adrenals” value ([2]; 1 h) was 0.36 % ID/g, the “Biodistribution Bone” value ([2]; 1 h) was 0.19 % ID/g and the “Biodistribution Brain” value ([2]; 1 h) was 0.02 % ID/g. The “Biodistribution Daudi (tumor)” value ([2]; 1 h) was 8.52 % ID/g, the “Biodistribution Heart” value ([2]; 1 h) was 0.13 % ID/g and the “Biodistribution Intestine” value ([2]; 1 h) was 0.22 % ID/g. The “Biodistribution Kidney” value ([2]; 1 h) was 4.18 % ID/g, the “Biodistribution Liver” value ([2]; 1 h) was 0.59 % ID/g and the “Biodistribution Lung” value ([2]; 1 h) was 0.48 % ID/g. For the same compound, the “Biodistribution Muscle” value ([2]; 1 h) was 0.10 % ID/g, the “Biodistribution Pancreas” value ([2]; 1 h) was 0.18 % ID/g and the “Biodistribution Spleen” value ([2]; 1 h) was 0.53 % ID/g. The “Biodistribution Stomach” value ([2]; 1 h) was 0.07 % ID/g, the “Biodistribution Testes” value ([2]; 1 h) was 0.11 % ID/g and the “Ratio Tumor: Blood” value ([2]; 1 h) was 30.57. For the same compound, the “Ratio Tumor: Bone” value ([2]; 1 h) was 48.04, the “Ratio Tumor: Liver” value ([2]; 1 h) was 14.30 and the “Ratio Tumor: Lung” value ([2]; 1 h) was 18.07. The “Ratio Tumor: Muscle” value ([2]; 1 h) was 80.77, the “Ratio Tumor: Spleen” value ([2]; 1 h) was 17.18 and the “Biodistribution Adrenals” value [2, 4] was 0.32 % ID/g. The “Biodistribution Bone” value [2, 4] was 0.20 % ID/g, the “Biodistribution Brain” value [2, 4] was 0.02 % ID/g and the “Biodistribution Heart” value [2, 4] was 0.14 % ID/g. The “Biodistribution Intestine” value [2, 4] was 0.31 % ID/g, the “Biodistribution Kidney” value [2, 4] was 4.63 % ID/g and the “Biodistribution Liver” value [2, 4] was 0.55 % ID/g. The “Biodistribution Lung” value [2, 4] was 0.58 % ID/g, the “Biodistribution Muscle” value [2, 4] was 0.09 % ID/g and the “Biodistribution Pancreas” value [2, 4] was 0.12 % ID/g. The “Biodistribution Spleen” value [2, 4] was 0.23 % ID/g, the “Biodistribution Stomach” value [2, 4] was 0.07 % ID/g and the “Biodistribution Testes” value [2, 4] was 0.15 % ID/g. The “Ratio Tumor: Blood” value [2, 4] was 1.71, the “Ratio Tumor: Bone” value [2, 4] was 4.44 and the “Ratio Tumor: Liver” value [2, 4] was 1.47. For the same compound, the “Ratio Tumor: Lung” value [2, 4] was 1.43, the “Ratio Tumor: Muscle” value [2, 4] was 9.23 and the “Ratio Tumor: Spleen” value [2, 4] was 3.57. For the same compound, the “Biodistribution Adrenals” value ([2]; 2 h) was 0.21 % ID/g, the “Biodistribution Bone” value ([2]; 2 h) was 0.09 % ID/g and the “Biodistribution Brain” value ([2]; 2 h) was 0.01 % ID/g. For the same compound, the “Biodistribution Heart” value ([2]; 2 h) was 0.05 % ID/g, the “Biodistribution Intestine” value ([2]; 2 h) was 0.12 % ID/g and the “Biodistribution Kidney” value ([2]; 2 h) was 3.40 % ID/g. For the same compound, the “Biodistribution Liver” value ([2]; 2 h) was 0.54 % ID/g, the “Biodistribution Lung” value ([2]; 2 h) was 0.27 % ID/g and the “Biodistribution Muscle” value ([2]; 2 h) was 0.04 % ID/g. For the same compound, the “Biodistribution Pancreas” value ([2]; 2 h) was 0.05 % ID/g, the “Biodistribution Spleen” value ([2]; 2 h) was 0.24 % ID/g and the “Biodistribution Stomach” value ([2]; 2 h) was 0.07 % ID/g. For the same compound, the “Biodistribution Testes” value ([2]; 2 h) was 0.05 % ID/g, the “Ratio Tumor: Blood” value ([2]; 2 h) was 114.6 and the “Ratio Tumor: Bone” value ([2]; 2 h) was 87.81. The “Ratio Tumor: Liver” value ([2]; 2 h) was 14.47, the “Ratio Tumor: Lung” value ([2]; 2 h) was 31.68 and the “Ratio Tumor: Muscle” value ([2]; 2 h) was 216.0. The “Ratio Tumor: Spleen” value ([2]; 2 h) was 36.06, the tissue uptake at 1 h ([3]; blood, 1 h, read-out: Biodistribution Blood) was 0.31 %ID/g and the tissue uptake at 1 h ([3]; blood, 1 h blocked (7.5 μg LY2510924 i.p.), read-out: Biodistribution Blood) was 0.5 %ID/g. It also gave a tissue uptake at 2 h ([3]; blood, read-out: Biodistribution Blood) of 0.08 %ID/g, a tissue uptake at 1 h ([3]; fat, 1 h, read-out: Biodistribution Fat) of 0.05 %ID/g and a tissue uptake at 1 h ([3]; fat, 1 h blocked (7.5 μg LY2510924 i.p.), read-out: Biodistribution Fat) of 0.07 %ID/g. It also gave a tissue uptake at 2 h ([3]; fat, read-out: Biodistribution Fat) of 0.02 %ID/g, a tissue uptake at 1 h ([3]; tumor, 1 h blocked (7.5 μg LY2510924 i.p.), read-out: Biodistribution Daudi (tumor)) of 0.8 %ID/g and a tissue uptake at 2 h ([3]; tumor, read-out: Biodistribution Daudi (tumor)) of 7.78 %ID/g.
